Data from US9670172B2, “Heterocyclic compounds and methods of use” (Medivation Technologies, Inc., priority 2014, dated 2017).
Where two headings read alike, the source gives them in different places.

Assays:
[1] = system: SREBP2; assay: SREBP2 cleavage in HEPG2 cells (Western blot normalized to actin); type: cell-based; details: Homo sapiens, read-out: Average SREBP2 cleavage (% Inhibition, n = 3)
Procedure: Average SREBP2 cleavage in HEPG2 cells was measured in the presence of compounds disclosed in Table 1. HepG2 cells were seeded at 500,000 cells per well in 6-well plates in DMEM supplemented with 10% FBS. After 2 days, cells were treated with compounds (20 μM) for 1 day in DMEM without FBS. Western blots were normalized with respect to actin.
The results are shown in Table 3 as percent inhibition@20 μM, and in Table 4 as percent inhibition@5 μM.

[2] = HepG2 cell viability by MTS; type: cell-based; details: human, HepG2 cells, 3 days, DMEM without FBS, MTS, read-out: Average Viability (% Inhibition, n = 3)
Procedure: For viability measurements, HepG2 cells were seeded at 5,000 cells per well in 96-well plates in DMEM supplemented with 10% FBS. After 1 day in culture, cells were treated with compounds (20 μM & 5 μM) for 3 days in DMEM without FBS. Viability was measured by MTS. Treatment with compounds (20 μM & 5 μM) was carried out in medium without FBS, and viability was measured by MTS. […]

[3] = 24 h, 20 μM, HepG2 cells, 1 day, DMEM without FBS

Row | SMILES | inhibition at 5 µM ([1]; HepG2 cells) [%] | cytotoxicity at 3 days, 5 μM [2] [%] | inhibition at 20 µM [1, 3] [%] | cytotoxicity at 3 days, 20 μM [2] [%] | inhibition at 20 µM ([1]; HepG2, 24 h) [%]
1 | Cc1noc(C)c1-c1nc(-c2ccc(NS(=O)(=O)C(F)(F)F)cc2Cl)cs1 [Compound 77, N-{3-chloro-4-[2-(dimethyl-1,2-oxazol-4-yl)-1,3-thiazol-4-yl]phenyl}-1,1,1-trifluoromethanesulfonamide] | 56 | 41 | – | – | –
2 | O=S(=O)(Nc1ccc(-c2csc(-c3ccnc4ccccc34)n2)c(Cl)c1)C(F)(F)F [Compound 94, N-[3-chloro-4-[2-(4-quinolyl)thiazol-4-yl]phenyl]-1,1,1-trifluoro-methanesulfonamide] | 35 | 84 | – | – | –
3 | O=S(=O)(Nc1ccc(-c2csc(-c3c[nH]c4ccccc34)n2)c(Cl)c1)C(F)(F)F [Compound 93, N-{3-chloro-4-[2-(1H-indol-3-yl)-1,3-thiazol-4-yl]phenyl}-1,1,1-trifluoromethanesulfonamide] | 28 | 82 | – | – | –
4 | O=S(=O)(Nc1ccc(-c2csc(-c3c(F)cnc4[nH]ccc34)n2)c(Cl)c1)C(F)(F)F [Compound 89, N-[3-chloro-4-(2-{5-fluoro-1H-pyrrolo[2,3-b]pyridin-4-yl}-1,3-thiazol-4-yl)phenyl]-1,1,1-trifluoromethanesulfonamide] | 53 | – | – | – | –
5 | CCCc1cc(-c2nc(-c3ccc(NS(=O)(=O)C(F)(F)F)cc3)cs2)ccn1 [Compound 1, 1,1,1-trifluoro-N-(4-(2-(2-propylpyridin-4-yl)thiazol-4-yl)phenyl)methanesulfonamide] | – | – | 73.7 | 92.1 | –
6 | CCCc1cc(-c2nc(-c3ccc(NS(=O)(=O)C(F)(F)F)c(OC)c3)cs2)ccn1 [Compound 58, 1,1,1-trifluoro-N-{2-methoxy-4-[2-(2-propylpyridin-4-yl)-1,3-thiazol-4-yl]phenyl}methanesulfonamide] | – | – | 29.4 | 67.9 | –
7 | Cc1cnccc1-c1nc(-c2ccc(NS(=O)(=O)C(F)(F)F)cc2Cl)cs1 [Compound 86, N-{3-chloro-4-[2-(3-methylpyridin-4-yl)-1,3-thiazol-4-yl]phenyl}-1,1,1-trifluoromethanesulfonamide] | 54 | 27 | – | – | –
8 | O=S(=O)(Nc1ccc(-c2csc(-c3ccc4cc[nH]c4c3)n2)c(Cl)c1)C(F)(F)F [Compound 72, N-{3-chloro-4-[2-(1H-indol-6-yl)-1,3-thiazol-4-yl]phenyl}-1,1,1-trifluoromethanesulfonamide] | 61 | 94 | – | – | –
9 | O=S(=O)(Nc1ccc(-c2csc(-c3cncc4ccccc34)n2)c(Cl)c1)C(F)(F)F [Compound 75, N-{3-chloro-4-[2-(isoquinolin-4-yl)-1,3-thiazol-4-yl]phenyl}-1,1,1-trifluoromethanesulfonamide] | 55 | 88 | – | – | –
10 | CCCc1cc(-c2nc(-c3ccc(NS(=O)(=O)C(F)(F)F)c(O)c3)cs2)ccn1 [Compound 63, 1,1,1-trifluoro-N-(2-hydroxy-4-(2-(2-propylpyridin-4-yl)thiazol-4-yl)phenyl)methanesulfonamide] | – | – | 39 | 47 | –
11 | O=S(=O)(Nc1ccc(-c2csc(-c3cccc(CO)c3)n2)c(Cl)c1)C(F)(F)F [Compound 83, N-(3-chloro-4-{2-[3-(hydroxymethyl)phenyl]-1,3-thiazol-4-yl}phenyl)-1,1,1-trifluoromethanesulfonamide] | 2 | 0 | – | – | –
12 | O=S(=O)(Nc1ccc(-c2csc(-c3ccc(F)cc3C(F)(F)F)n2)c(Cl)c1)C(F)(F)F [Compound 81, N-[3-chloro-4-[2-[4-fluoro-2-(trifluoromethyl)phenyl]thiazol-4-yl]phenyl]-1,1,1-trifluoro-methanesulfonamide] | 44 | 88 | – | – | –
13 | O=S(=O)(Nc1ccc(-c2csc(-c3ccnc(NC4CCCC4)c3)n2)c(Cl)c1)C(F)(F)F [Compound 92, N-(3-chloro-4-{2-[2-(cyclopentylamino)pyridin-4-yl]-1,3-thiazol-4-yl}phenyl)-1,1,1-trifluoromethanesulfonamide] | 59 | 94 | – | – | –
14 | COc1ccc(-c2nc(-c3ccc(NS(=O)(=O)C(F)(F)F)cc3Cl)cs2)cc1OC [Compound 79, N-{3-chloro-4-[2-(3,4-dimethoxyphenyl)-1,3-thiazol-4-yl]phenyl}-1,1,1-trifluoromethanesulfonamide] | 65 | 74 | – | – | –
15 | CCCc1cc(-c2nc(-c3ccc(NS(=O)(=O)C(F)(F)F)cc3Cl)cs2)ccn1 [Compound 4, N-(3-chloro-4-(2-(2-propylpyridin-4-yl)thiazol-4-yl)phenyl)-1,1,1-trifluoromethanesulfonamide] | – | – | – | 94.4 | 96.1
16 | O=S(=O)(Nc1ccc(-c2csc(-c3ccnc(Cl)c3)n2)c(Cl)c1)C(F)(F)F [Compound 95, N-(3-chloro-4-(2-(2-chloropyridin-4-yl)thiazol-4-yl)phenyl)-1,1,1-trifluoromethanesulfonamide] | 39 | 86 | – | – | –
17 | Cc1ccc(S(=O)(=O)Nc2cccc(-c3nc(-c4ccc(NS(=O)(=O)C(F)(F)F)cc4Cl)cs3)c2)cc1 [Compound 78, N-{3-[4-(2-chloro-4-trifluoromethanesulfonamidophenyl)-1,3-thiazol-2-yl]phenyl}-4-methylbenzene-1-sulfonamide] | 38 | 87 | – | – | –
18 | O=S(=O)(Nc1ccc(-c2csc(-c3ccnc(NS(=O)(=O)C(F)(F)F)c3)n2)c(Cl)c1)C(F)(F)F [Compound 66, N-{3-chloro-4-[2-(2-trifluoromethanesulfonamidopyridin-4-yl)-1,3-thiazol-4-yl]phenyl}-1,1,1-trifluoromethanesulfonamide] | – | – | 0 | 11 | –
19 | CS(=O)(=O)Nc1cc(-c2nc(-c3ccc(NS(=O)(=O)C(F)(F)F)cc3Cl)cs2)ccn1 [Compound 62, N-{3-chloro-4-[2-(2-methanesulfonamidopyridin-4-yl)-1,3-thiazol-4-yl]phenyl}-1,1,1-trifluoromethanesulfonamide] | – | – | 0 | 0 | –
20 | O=C(c1ccc(-c2nc(-c3ccc(NS(=O)(=O)C(F)(F)F)cc3Cl)cs2)cc1)N1CCCCC1 [Compound 67, N-(3-chloro-4-{2-[4-(piperidine-1-carbonyl)phenyl]-1,3-thiazol-4-yl}phenyl)-1,1,1-trifluoromethanesulfonamide] | – | – | 3 | 20 | –
21 | Nc1cc(-c2nc(-c3ccc(NS(=O)(=O)C(F)(F)F)cc3Cl)cs2)ccn1 [Compound 61, N-{4-[2-(2-aminopyridin-4-yl)-1,3-thiazol-4-yl]-3-chlorophenyl}-1,1,1-trifluoromethanesulfonamide] | – | – | 2 | 43 | –
22 | O=S(=O)(Nc1ccc(-c2csc(-c3ccccc3-c3ccccc3)n2)c(Cl)c1)C(F)(F)F [Compound 74, N-{3-chloro-4-[2-(2-phenylphenyl)-1,3-thiazol-4-yl]phenyl}-1,1,1-trifluoromethanesulfonamide] | 76 | 97 | – | – | –
